Measured values published in patent US9765075B2, “Substituted bridged urea analogs as sirtuin modulators” (GLAXOSMITHKLINE LLC, priority 2013, dated 2017).
Read-outs that look alike come from different tables or passages of the source.

Target: T1, SIRT1 (Homo sapiens, UniProt Q96EB6)
T1 sequence (Q96EB6 1-747): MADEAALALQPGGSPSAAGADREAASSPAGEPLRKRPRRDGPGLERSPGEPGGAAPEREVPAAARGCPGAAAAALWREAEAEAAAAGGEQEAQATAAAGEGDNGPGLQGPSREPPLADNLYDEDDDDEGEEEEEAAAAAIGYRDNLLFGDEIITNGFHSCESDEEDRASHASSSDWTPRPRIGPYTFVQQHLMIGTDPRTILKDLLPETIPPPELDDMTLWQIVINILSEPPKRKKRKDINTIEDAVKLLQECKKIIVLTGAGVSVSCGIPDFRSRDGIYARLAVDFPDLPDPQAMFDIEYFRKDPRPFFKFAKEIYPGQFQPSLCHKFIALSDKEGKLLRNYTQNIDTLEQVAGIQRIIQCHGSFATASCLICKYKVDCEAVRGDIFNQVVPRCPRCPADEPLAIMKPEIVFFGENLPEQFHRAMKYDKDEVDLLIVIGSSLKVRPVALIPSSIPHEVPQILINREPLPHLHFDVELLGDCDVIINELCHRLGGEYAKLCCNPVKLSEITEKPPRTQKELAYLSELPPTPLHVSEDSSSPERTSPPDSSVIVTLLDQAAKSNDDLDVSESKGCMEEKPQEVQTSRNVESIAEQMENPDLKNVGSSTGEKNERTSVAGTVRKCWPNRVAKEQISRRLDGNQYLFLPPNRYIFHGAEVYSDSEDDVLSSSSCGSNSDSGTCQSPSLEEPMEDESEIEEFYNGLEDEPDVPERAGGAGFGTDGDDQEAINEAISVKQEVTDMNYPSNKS
Experiment: Trp mass spectrometry assay (SIRT1 activation)
Assay type: biochemical
Conditions: for Emax: percent maximum fold activation of SIRT1, read-out: Tryp % Fold Act
Procedure, shortened: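 Activation is expressed as EC1.5, the concentration raising activity 50% above DMSO control, and as maximum percent of control. Mass-spec readout was OAADPR or deacetylated Trp peptide after a formic-acid-quenched 25-min, 25 °C reaction: 10 nM bacterially expressed His-SIRT1, 0.5 μM acetyl-p53-derived peptide, 120 μM NAD+, pH 7.5 HEPES with […].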

[1] = Trp mass spectrometry assay, EC1.5 = concentration of test compound that results in 150% activation of SIRT1

Structure (SMILES): Cn1ccc(NC(=O)N2c3nc(-c4cccc(OC(F)(F)F)c4)ccc3N3CC[C@H]2C3)n1 [Example 177]
- Tryp AVG EC1.5 (μM) [1]: A (EC1.5<1 μM)
- Emax (Trp mass spectrometry assay): ≥ 150%

Structure (SMILES): N#Cc1cccc(-c2ccc3c(n2)N(C(=O)Nc2cccc(-c4cnco4)c2)[C@H]2CCN3C2)c1 [Example 178]
- Tryp AVG EC1.5 (μM) [1]: A (EC1.5<1 μM)
- Emax (Trp mass spectrometry assay): ≥ 150%

Structure (SMILES): Cc1nc(NC(=O)N2c3nc(-c4cccc(C#N)c4)ccc3N3CC[C@H]2C3)sc1C [Example 179]
- Tryp AVG EC1.5 (μM) [1]: A (EC1.5<1 μM)
- Emax (Trp mass spectrometry assay): ≥ 150%

Structure (SMILES): N#Cc1cccc(-c2ccc3c(n2)N(C(=O)Nc2cccnc2)[C@H]2CCN3C2)c1 [Example 180]
- Tryp AVG EC1.5 (μM) [1]: A (EC1.5<1 μM)
- Emax (Trp mass spectrometry assay): ≥ 150%

Structure (SMILES): N#Cc1cccc(-c2ccc3c(n2)N(C(=O)Nc2ccncn2)[C@H]2CCN3C2)c1 [Example 181]
- Tryp AVG EC1.5 (μM) [1]: A (EC1.5<1 μM)
- Emax (Trp mass spectrometry assay): ≥ 150%

Structure (SMILES): N#Cc1cccc(-c2ccc3c(n2)N(C(=O)Nc2cncc(F)c2)[C@H]2CCN3C2)c1 [Example 182]
- Tryp AVG EC1.5 (μM) [1]: A (EC1.5<1 μM)
- Emax (Trp mass spectrometry assay): ≥ 150%

Structure (SMILES): COc1nccc(NC(=O)N2c3nc(-c4cccc(C#N)c4)ccc3N3CC[C@H]2C3)n1 [Example 183]
- Tryp AVG EC1.5 (μM) [1]: B (EC1.5 1-25 μM)
- Emax (Trp mass spectrometry assay): ≥ 150%

Structure (SMILES): Cn1ncc2cc(NC(=O)N3c4nc(-c5cccc(C#N)c5)ccc4N4CC[C@H]3C4)ccc21 [Example 184]
- Tryp AVG EC1.5 (μM) [1]: A (EC1.5<1 μM)
- Emax (Trp mass spectrometry assay): ≥ 150%

Structure (SMILES): Cn1ccc(NC(=O)N2c3nc(-c4cccc(C#N)c4)ccc3N3CC[C@H]2C3)n1 [Example 185]
- Tryp AVG EC1.5 (μM) [1]: B (EC1.5 1-25 μM)
- Emax (Trp mass spectrometry assay): ≥ 150%

Structure (SMILES): Cn1cc(NC(=O)N2c3nc(-c4cccc(C#N)c4)ccc3N3CC[C@H]2C3)cn1 [Example 186]
- Tryp AVG EC1.5 (μM) [1]: B (EC1.5 1-25 μM)
- Emax (Trp mass spectrometry assay): ≥ 150%

Structure (SMILES): Cc1nc(NC(=O)N2c3nc(-c4cccc(N5CCCC5)c4)ccc3N3CC[C@H]2C3)sc1C [Example 187]
- Tryp AVG EC1.5 (μM) [1]: B (EC1.5 1-25 μM)
- Emax (Trp mass spectrometry assay): ≥ 150%

Structure (SMILES): COc1nccc(NC(=O)N2c3nc(-c4cccc(N5CCCC5)c4)ccc3N3CC[C@H]2C3)n1 [Example 188]
- Tryp AVG EC1.5 (μM) [1]: B (EC1.5 1-25 μM)
- Emax (Trp mass spectrometry assay): ≥ 150%

Structure (SMILES): N#Cc1cccc(-c2ccc3c(n2)N(C(=O)Nc2cnccn2)[C@H]2CCN3C2)c1 [Example 189]
- Tryp AVG EC1.5 (μM) [1]: A (EC1.5<1 μM)
- Emax (Trp mass spectrometry assay): ≥ 150%

Structure (SMILES): COc1cncc(NC(=O)N2c3nc(-c4cccc(C#N)c4)ccc3N3CC[C@H]2C3)n1 [Example 190]
- Tryp AVG EC1.5 (μM) [1]: B (EC1.5 1-25 μM)
- Emax (Trp mass spectrometry assay): ≥ 150%

Structure (SMILES): O=C(Nc1cccc(-c2cnco2)c1)N1c2nc(-c3cccc(N4CCCC4)c3)ccc2N2CC[C@H]1C2 [Example 191]
- Tryp AVG EC1.5 (μM) [1]: A (EC1.5<1 μM)
- Emax (Trp mass spectrometry assay): ≥ 150%

Structure (SMILES): O=C(Nc1cccnc1)N1c2nc(-c3cccc(N4CCCC4)c3)ccc2N2CC[C@H]1C2 [Example 192]
- Tryp AVG EC1.5 (μM) [1]: B (EC1.5 1-25 μM)
- Emax (Trp mass spectrometry assay): ≥ 150%

Structure (SMILES): O=C(Nc1ccncn1)N1c2nc(-c3cccc(N4CCCC4)c3)ccc2N2CC[C@H]1C2 [Example 193]
- Tryp AVG EC1.5 (μM) [1]: B (EC1.5 1-25 μM)
- Emax (Trp mass spectrometry assay): ≥ 150%

Structure (SMILES): O=C(Nc1cccnc1)N1c2nc(-c3cccc(C(F)(F)F)c3)ccc2N2CCC[C@@H]1C2 [Example 194]
- Tryp AVG EC1.5 (μM) [1]: A (EC1.5<1 μM)
- Emax (Trp mass spectrometry assay): ≥ 150%

Structure (SMILES): O=C(Nc1ccncc1)N1c2nc(-c3cccc(C(F)(F)F)c3)ccc2N2CCC[C@@H]1C2 [Example 195]
- Tryp AVG EC1.5 (μM) [1]: B (EC1.5 1-25 μM)
- Emax (Trp mass spectrometry assay): ≥ 150%

Structure (SMILES): O=C(Nc1cccnn1)N1c2nc(-c3cccc(C(F)(F)F)c3)ccc2N2CCC[C@@H]1C2 [Example 196]
- Tryp AVG EC1.5 (μM) [1]: B (EC1.5 1-25 μM)
- Emax (Trp mass spectrometry assay): ≥ 150%

Structure (SMILES): COc1cncc(NC(=O)N2c3nc(-c4cccc(OC(F)(F)F)c4)ccc3N3CC[C@H]2C3)n1 [Example 197]
- Tryp AVG EC1.5 (μM) [1]: A (EC1.5<1 μM)
- Emax (Trp mass spectrometry assay): ≥ 150%

Structure (SMILES): O=C(Nc1cncc(F)c1)N1c2nc(-c3cccc(N4CCCC4)c3)ccc2N2CC[C@H]1C2 [Example 198]
- Tryp AVG EC1.5 (μM) [1]: B (EC1.5 1-25 μM)
- Emax (Trp mass spectrometry assay): ≥ 150%

Structure (SMILES): Cn1cc(NC(=O)N2c3nc(-c4cccc(N5CCCC5)c4)ccc3N3CC[C@H]2C3)cn1 [Example 199]
- Tryp AVG EC1.5 (μM) [1]: B (EC1.5 1-25 μM)
- Emax (Trp mass spectrometry assay): ≥ 150%

Structure (SMILES): CN(C(=O)N1c2nc(-c3cccc(C(F)(F)F)c3)ccc2N2CC[C@H]1C2)c1ccccn1 [Example 200]
- Tryp AVG EC1.5 (μM) [1]: C (EC1.5>25 μM)
- Emax (Trp mass spectrometry assay): < 150%

Structure (SMILES): Cc1nc(NC(=O)N2c3nc(-c4cccc(C(F)(F)F)c4)ccc3N3CC[C@@H]2C3)sc1C [Example 201]
- Tryp AVG EC1.5 (μM) [1]: B (EC1.5 1-25 μM)
- Emax (Trp mass spectrometry assay): ≥ 150%

Structure (SMILES): O=C(Nc1ccncn1)N1c2nc(-c3cccc(C(F)(F)F)c3)ccc2N2CC[C@@H]1C2 [Example 202]
- Tryp AVG EC1.5 (μM) [1]: B (EC1.5 1-25 μM)
- Emax (Trp mass spectrometry assay): ≥ 150%

Structure (SMILES): O=C(Nc1ccc(F)cn1)N1c2nc(-c3cccc(C(F)(F)F)c3)ccc2N2CC[C@@H]1C2 [Example 203]
- Tryp AVG EC1.5 (μM) [1]: B (EC1.5 1-25 μM)
- Emax (Trp mass spectrometry assay): ≥ 150%

Structure (SMILES): O=C(Nc1ccc(F)cn1)N1c2nc(-c3cccc(Cl)c3)ccc2N2CC[C@@H]1C2 [Example 204]
- Tryp AVG EC1.5 (μM) [1]: B (EC1.5 1-25 μM)
- Emax (Trp mass spectrometry assay): ≥ 150%

Structure (SMILES): COc1cccc(-c2ccc3c(n2)N(C(=O)Nc2ccc(F)cn2)[C@@H]2CCN3C2)c1 [Example 205]
- Tryp AVG EC1.5 (μM) [1]: B (EC1.5 1-25 μM)
- Emax (Trp mass spectrometry assay): ≥ 150%

Structure (SMILES): O=C(Nc1cnccn1)N1c2nc(-c3cccc(N4CCCC4)c3)ccc2N2CC[C@H]1C2 [Example 206]
- Tryp AVG EC1.5 (μM) [1]: B (EC1.5 1-25 μM)
- Emax (Trp mass spectrometry assay): ≥ 150%

Structure (SMILES): Cn1ncc2cc(NC(=O)N3c4nc(-c5cccc(N6CCCC6)c5)ccc4N4CC[C@H]3C4)ccc21 [Example 207]
- Tryp AVG EC1.5 (μM) [1]: A (EC1.5<1 μM)
- Emax (Trp mass spectrometry assay): ≥ 150%

Structure (SMILES): Cn1ccc(NC(=O)N2c3nc(-c4cccc(N5CCCC5)c4)ccc3N3CC[C@H]2C3)n1 [Example 208]
- Tryp AVG EC1.5 (μM) [1]: B (EC1.5 1-25 μM)
- Emax (Trp mass spectrometry assay): ≥ 150%

Structure (SMILES): COc1cc(NC(=O)N2c3nc(-c4cccc(C#N)c4)ccc3N3CCC[C@@H]2C3)ncn1 [Example 209]
- Tryp AVG EC1.5 (μM) [1]: C (EC1.5>25 μM)
- Emax (Trp mass spectrometry assay): < 150%

Structure (SMILES): N#Cc1cccc(-c2ccc3c(n2)N(C(=O)Nc2cccnc2)[C@@H]2CCCN3C2)c1 [Example 210]
- Tryp AVG EC1.5 (μM) [1]: B (EC1.5 1-25 μM)
- Emax (Trp mass spectrometry assay): ≥ 150%

Structure (SMILES): O=C(Nc1ccncn1)N1c2nc(N3CCCC(C(F)(F)F)C3)ccc2N2CC[C@H]1C2 (stereo partly drawn) [Example 211]
- Tryp AVG EC1.5 (μM) [1]: B (EC1.5 1-25 μM)
- Emax (Trp mass spectrometry assay): ≥ 150%

Structure (SMILES): O=C(Nc1cccc(-c2cnco2)c1)N1c2nc(N3CCCC(C(F)(F)F)C3)ccc2N2CC[C@H]1C2 (stereo partly drawn) [Example 212]
- Tryp AVG EC1.5 (μM) [1]: A (EC1.5<1 μM)
- Emax (Trp mass spectrometry assay): ≥ 150%

Structure (SMILES): Cc1cc(C)nc(NC(=O)N2c3nc(N4CCCC(C(F)(F)F)C4)ccc3N3CC[C@H]2C3)c1 (stereo partly drawn) [Example 213]
- Tryp AVG EC1.5 (μM) [1]: B (EC1.5 1-25 μM)
- Emax (Trp mass spectrometry assay): ≥ 150%

Structure (SMILES): Cc1csc(NC(=O)N2c3nc(N4CCCC(C(F)(F)F)C4)ccc3N3CC[C@H]2C3)n1 (stereo partly drawn) [Example 214]
- Tryp AVG EC1.5 (μM) [1]: A (EC1.5<1 μM)
- Emax (Trp mass spectrometry assay): ≥ 150%

Structure (SMILES): Cc1nc(NC(=O)N2c3nc(N4CCCC(C(F)(F)F)C4)ccc3N3CC[C@H]2C3)sc1C (stereo partly drawn) [Example 215]
- Tryp AVG EC1.5 (μM) [1]: B (EC1.5 1-25 μM)
- Emax (Trp mass spectrometry assay): ≥ 150%

Structure (SMILES): CN(C)c1cc(NC(=O)N2c3nc(N4CCCC(C(F)(F)F)C4)ccc3N3CC[C@H]2C3)ccn1 (stereo partly drawn) [Example 216]
- Tryp AVG EC1.5 (μM) [1]: A (EC1.5<1 μM)
- Emax (Trp mass spectrometry assay): ≥ 150%

Structure (SMILES): CN(C)c1ccnc(NC(=O)N2c3nc(N4CCCC(C(F)(F)F)C4)ccc3N3CC[C@H]2C3)n1 (stereo partly drawn) [Example 217]
- Tryp AVG EC1.5 (μM) [1]: B (EC1.5 1-25 μM)
- Emax (Trp mass spectrometry assay): ≥ 150%

Structure (SMILES): O=C(Nc1cncc(F)c1)N1c2nc(-c3cccc(Cl)c3)ccc2N2CC[C@@H]1C2 [Example 218]
- Tryp AVG EC1.5 (μM) (concentration of test compound that results in 150% activation of SIRT1, Trp peptide substrate): A (EC1.5<1 μM)
- Emax (Trp peptide substrate): ≥ 150%
